pIC50, pKd: −log10 of the molar value. Numbered stars: 1 amine (or outer) side, 2 acyl side, 3 side chain; on linkers, the order of the positions; unused ones are H or OH. Bridge positions count the residues as written; N and C are the ends. Square brackets hold non-standard residues; d marks the D form. Peptide text beside a SMILES is read from it. Trp(βS-Me,7-OMe) = COc1cccc2c([C@H](C)[C@H](N)C(=O)O)c[nH]c12; Phe(3R-OH) = O=C([C@@H](N[*:1])[C@H](O[*:3])c1ccccc1)[*:2]; X24 = O=C(O)c1ccc([C@@H](O)[C@H](N[*:1])C(=O)[*:2])cc1; Achc(cis-1,4) = O=C([C@H]1CC[C@@H](N[*:1])CC1)[*:2]; Trp(7-Cl) = N[C@@H](Cc1c[nH]c2c(Cl)cccc12)C(=O)O; Phe(4-CONH2) = NC(=O)c1ccc(C[C@H](N)C(=O)O)cc1; Phe(4-COOH) = N[C@@H](Cc1ccc(C(=O)O)cc1)C(=O)O; Trp(7-aza) = N[C@@H](Cc1c[nH]c2ncccc12)C(=O)O; Phe(4-CH2NH2) = NCc1ccc(C[C@H](N)C(=O)O)cc1; Pip(5R-OH) = O=C(O)[C@@H]1CC[C@@H](O)CN1; X1 = O=C([C@@H]1CC[C@H](N[*:1])C1)[*:2]; 2Nal = N[C@@H](Cc1ccc2ccccc2c1)C(=O)O; d(cisHyp) = O=C(O)[C@H]1C[C@@H](O)CN1; Gly(N(CH2)3COOH) = O=C(O)CCCNCC(=O)O; Pip(4-aza) = O=C(O)[C@@H]1CNCCN1; hPhe = N[C@@H](CCc1ccccc1)C(=O)O; 3Pal = N[C@@H](Cc1cccnc1)C(=O)O; 4Pal = N[C@@H](Cc1ccncc1)C(=O)O; NMeE = CN[C@@H](CCC(=O)O)C(=O)O; dHyp = O=C(O)[C@H]1C[C@H](O)CN1; Pip = O=C(O)[C@@H]1CCCCN1; αMeS = C[C@](N)(CO)C(=O)O; Nle = CCCC[C@H](N)C(=O)O; Dap = NC[C@H](N)C(=O)O; Sar = CNCC(=O)O
These molecules were tested against T1, human soluble TNFR1 (sTNFR1) (Homo sapiens, UniProt P19438) (assay: Human sTNFR1-peptide displacement assay (LanthaScreen Eu TR-FRET binding assay)).
T1 construct: made in house; host or cells: Sf21 (baculovirus)
T1 sequence (P19438 with tags, fused parts or gaps): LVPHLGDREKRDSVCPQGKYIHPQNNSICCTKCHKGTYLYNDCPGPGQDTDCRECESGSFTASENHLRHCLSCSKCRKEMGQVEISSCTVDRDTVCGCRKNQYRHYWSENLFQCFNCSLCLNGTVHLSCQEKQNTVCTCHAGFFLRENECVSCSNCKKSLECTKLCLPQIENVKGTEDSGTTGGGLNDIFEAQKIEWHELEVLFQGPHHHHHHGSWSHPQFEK
Outline: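 Readout is the 665/615 nm TR-FRET ratio (Eu anti-His donor, streptavidin-Alexa647 acceptor), normalized to DMSO and saturating displacer, fit by Morrison-based five-parameter logistic for Kd^app. His-tagged sTNFR1 (1-211) prebound to 100 nM biotinylated peptide SEQ ID NO.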

| SMILES | pIC50 | pKd |
| --- | --- | --- |
| CCCC[C@@H]1NC(=O)CSC[C@@H](C(N)=O)NC(=O)[C@H]([C@@H](C)c2c[nH]c3c(OC)cccc23)NC(=O)CN(C)C(=O)[C@H](Cc2ccc(O)cc2)NC(=O)[C@H](Cc2ccc(C(=O)O)cc2)NC(=O)[C@](C)(CO)NC(=O)[C@H](Cc2c[nH]c3c(Cl)cccc23)NC(=O)[C@H](Cc2ccncc2)NC(=O)[C@H](CC(N)=O)NC(=O)[C@H]2C[C@@H](O)CN2C(=O)[C@H](Cc2c[nH]c3ncccc23)NC(=O)[C@@H]2CNCCN2C(=O)[C@H](Cc2ccncc2)NC1=O [SEQ ID NO. 261] ({CH2CO}-[Nle][4Pal][Pip(4-aza)][Trp(7-aza)][d(cisHyp)]N[4Pal][Trp(7-Cl)][αMeS][Phe(4-COOH)]Y[Sar][Trp(βS-Me,7-OMe)]C-NH2; thioether N-14) | 9.40 | 9.52 |
| CCCC[C@@H]1NC(=O)CSC[C@@H](C(N)=O)NC(=O)[C@H]([C@@H](C)c2c[nH]c3c(OC)cccc23)NC(=O)CN(C)C(=O)[C@H](Cc2ccc(O)cc2)NC(=O)[C@H](Cc2ccc(C(=O)O)cc2)NC(=O)[C@](C)(CO)NC(=O)[C@H](Cc2c[nH]c3c(Cl)cccc23)NC(=O)[C@H](Cc2ccncc2)NC(=O)[C@H](CC(N)=O)NC(=O)CN(CCCC(=O)O)C(=O)[C@H](Cc2c[nH]c3ncccc23)NC(=O)[C@@H]2CCCCN2C(=O)[C@H](Cc2ccncc2)NC1=O [SEQ ID NO. 157] ({CH2CO}-[Nle][4Pal][Pip][Trp(7-aza)][Gly(N(CH2)3COOH)]N[4Pal][Trp(7-Cl)][αMeS][Phe(4-COOH)]Y[Sar][Trp(βS-Me,7-OMe)]C-NH2; thioether N-14) | 9.14 | 9.19 |
| CCCC[C@@H]1NC(=O)CSC[C@@H](C(N)=O)NC(=O)[C@H]([C@@H](C)c2c[nH]c3c(OC)cccc23)NC(=O)CN(C)C(=O)[C@H](Cc2ccc(O)cc2)NC(=O)[C@H](Cc2ccc(C(=O)O)cc2)NC(=O)[C@](C)(CO)NC(=O)[C@H](Cc2c[nH]c3c(Cl)cccc23)NC(=O)[C@H](Cc2ccncc2)NC(=O)[C@H](CC(N)=O)NC(=O)[C@H](CCC(=O)O)N(C)C(=O)[C@H](Cc2c[nH]c3ncccc23)NC(=O)[C@H](CO)NC(=O)[C@H]([C@H](O)c2ccccc2)NC1=O [SEQ ID NO. 259] ({CH2CO}-[Nle][Phe(3R-OH)]S[Trp(7-aza)][NMeE]N[4Pal][Trp(7-Cl)][αMeS][Phe(4-COOH)]Y[Sar][Trp(βS-Me,7-OMe)]C-NH2; thioether N-14) | – | 9.66 |
| CCCC[C@@H]1NC(=O)[C@@H]2CC[C@@H](C2)NC(=O)[C@H]([C@@H](C)c2c[nH]c3c(OC)cccc23)NC(=O)CN(C)C(=O)[C@H]([C@H](O)c2ccc(C(=O)O)cc2)NC(=O)[C@H](Cc2ccc(C(N)=O)cc2)NC(=O)[C@](C)(CO)NC(=O)[C@H](Cc2c[nH]c3c(Cl)cccc23)NC(=O)[C@H](Cc2ccncc2)NC(=O)[C@H](CC(N)=O)NC(=O)[C@H]2C[C@H](O)CN2C(=O)[C@H](Cc2c[nH]c3ccccc23)NC(=O)[C@@H]2CC[C@@H](O)CN2C(=O)[C@H](Cc2ccncc2)NC1=O [SEQ ID NO. 188] (cyclo([4Pal][Trp(7-Cl)][αMeS][Phe(4-CONH2)][X24][Sar][Trp(βS-Me,7-OMe)][X1][Nle][4Pal][Pip(5R-OH)]W[dHyp]N)) | – | 10.00 |
| CN1CC(=O)N[C@@H](Cc2c[nH]c3ccccc23)C(=O)N[C@H](C(N)=O)CSCC(=O)N[C@@H](CCc2ccccc2)C(=O)N[C@@H](Cc2ccncc2)C(=O)N[C@@H](CN)C(=O)N[C@@H](Cc2c[nH]c3ccccc23)C(=O)N2CCC[C@@H]2C(=O)N[C@@H](CC(N)=O)C(=O)N[C@@H](Cc2ccncc2)C(=O)N[C@@H](Cc2ccc3ccccc3c2)C(=O)N[C@@](C)(CO)C(=O)N[C@@H](Cc2ccc(C(=O)O)cc2)C(=O)N[C@@H](Cc2cccnc2)C1=O [SEQ ID NO. 233] ({CH2CO}-[hPhe][4Pal][Dap]W[dP]N[4Pal][2Nal][αMeS][Phe(4-COOH)][3Pal][Sar]WC-NH2; thioether N-14) | 8.58 | – |
| CCCC[C@@H]1NC(=O)[C@H]2CC[C@H](CC2)NC(=O)[C@H]([C@@H](C)c2c[nH]c3c(OC)cccc23)NC(=O)CN(C)C(=O)[C@H](Cc2ccc(O)cc2)NC(=O)[C@H](Cc2ccc(C(=O)O)cc2)NC(=O)[C@](C)(CO)NC(=O)[C@H](Cc2c[nH]c3c(Cl)cccc23)NC(=O)[C@H](Cc2ccncc2)NC(=O)[C@H](CC(N)=O)NC(=O)[C@H](CCC(=O)O)N(C)C(=O)[C@H](Cc2c[nH]c3ccccc23)NC(=O)[C@H](CO)NC(=O)[C@H](Cc2ccc(CN)cc2)NC1=O [SEQ ID NO. 244] (cyclo([4Pal][Trp(7-Cl)][αMeS][Phe(4-COOH)]Y[Sar][Trp(βS-Me,7-OMe)][Achc(cis-1,4)][Nle][Phe(4-CH2NH2)]SW[NMeE]N)) | 9.31 | 9.02 |

Reference: US20240287138A1, “CYCLIC PEPTIDES FOR INHIBITING TNF RECEPTOR 1 ACTIVITY” (Merck Sharp & Dohme LLC, priority 2023, published 2024)
